The test has as its system equol production in the intestinal tract. The test is described as follows: Ability of DFA to increase equol production in the intestinal tract of rats (plasma equol by HPLC-UV). The test is classed as in vivo, Wistar-ST rats. Particulars: 20 days. The source says: The ability of DFA to increase equol production in the intestinal tract was examined.
Twenty-seven male Wistar-ST rats (six weeks old) were raised with a solid feed for three days, after which they were divided into three groups by weight so that each group consisted of nine rats. Each group was given a base feed containing 0.25% of a food product containing 40% isoflavone (basal diet group), a feed consisting of the base feed whose sucrose was substituted by 3% with DFAIII (DFAIII group), or a feed consisting of the base feed whose sucrose was substituted by 3% with fructo-oligosaccharide (FOS group), and raised for twenty days. On day 20, blood was taken from each rat through the caudal vein and the equol level in blood plasma was measured using the HPLC-UV method.
In the table, a and b indicate that values denoted by different symbols have a significant difference between them.

For the compound `OC[C@H]1O[C@@]2(CO[C@]3(CO)O[C@H](CO)[C@@H](O)[C@@H]3O2)[C@@H](O)[C@@H]1O` [DFA, difructose anhydride], the “Effect of ingestion on equol level in blood plasma (in words)” value (rats, 3% in isoflavone-containing feed) is given as “caused the equol level in blood plasma to rise”.

As to `OC[C@H]1O[C@@]2(CO[C@]3(CO)O[C@H](CO)[C@@H](O)[C@@H]3O2)[C@@H](O)[C@@H]1O` [DFAIII, difructose anhydride], the Equol (equol level in blood plasma) (male Wistar-ST rats, n=9/group, base feed with 0.25% of food product containing 40% isoflavone, sucrose substituted by 3% with test substance, caudal vein blood on day 20, HPLC-UV) was 17.7 ± 1.81 µmol.

(Values after US8530446B2, “Oral composition containing difructose anhydride” (Fancl Corporation, priority 2004, dated 2013).)
